Results on three compounds are retold here after paper PMC10970644, “Molecular Pharmacology of Gelsemium Alkaloids on Inhibitory Receptors” (International Journal of Molecular Sciences, 2024).

One data set concerns the target T1, chimeric α1α2 GlyR (Rattus norvegicus, UniProt P07727+P22771, F345L/G282A/I268V/L342F/S324A).
T1 construct: Relevance of the ECD for the subunit-specific actions of gelsemine on α1GlyRs; expressed in transfected cells; host or cells: HEK293 (ATCC CRL-1573)
T1 sequence (P07727+P22771 with tags, fused parts or gaps P07727:I268V/P07727:G282A/P07727:S324A/P07727:L342F/P07727:F345L): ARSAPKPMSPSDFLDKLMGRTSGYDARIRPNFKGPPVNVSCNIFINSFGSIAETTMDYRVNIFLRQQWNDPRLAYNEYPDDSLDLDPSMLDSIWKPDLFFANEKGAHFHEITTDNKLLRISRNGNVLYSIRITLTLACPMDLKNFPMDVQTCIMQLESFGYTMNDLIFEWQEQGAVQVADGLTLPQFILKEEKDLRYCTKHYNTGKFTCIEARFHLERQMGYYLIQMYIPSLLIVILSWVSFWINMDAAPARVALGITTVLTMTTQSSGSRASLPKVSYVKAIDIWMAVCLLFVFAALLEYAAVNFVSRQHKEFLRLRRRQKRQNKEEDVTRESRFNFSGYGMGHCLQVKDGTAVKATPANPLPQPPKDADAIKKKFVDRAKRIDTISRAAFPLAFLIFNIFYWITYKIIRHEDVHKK
Format: cell-based. The procedure: (§1) The cells were transfected with plasmids encoding the following proteins: (i). rat GlyR α (1, 2, 3) subunits alone or combined with rat β subunits (Uniprot Accession Numbers: Q546L7, P22771, P20236, P20781); and (ii). rat GABAAR α1 combined with rat β2 and γ2 subunits (Uniprot Accession Numbers: P62813, P63138, P18508). The EGFP expression was used as a marker of successful protein expression. The transfection was performed using Lipofectamine 2000 (Invitrogen, ThermoFisher, Carlsbad, CA, USA) using the fabricant protocol. The plasmids used to express GlyRs and GABAARs have been previously described. To track the successful expression of GlyR β subunits and the GABAA γ2 or β2 subunit, these proteins were subcloned in the pIRES2-EGFP vector. The transfection ratio to obtain β-containing GlyRs was 1:5 of α:β, while the expression of γ2-containing GABAA receptors was 1:2:5 of α:β:γ2 [14, 15]. Chimeric GlyRs were described in a previous report. Site directed mutagenesis was performed by Charm Gene Science Mutagenex LLC. (Cumming, GA, USA). All the constructs were checked by full-length sequencing (SNPSaurus, Eugene, OR, USA).
(§2) In brief, patch electrodes (3–4 MΩ) were pulled from borosilicate glasses in a PC-100 puller (Narishige, Tokyo, Japan); then, they were filled with an intracellular solution, which contained (in mM) 120 CsCl, 8 EGTA, 10 HEPES (pH 7.4), 4 MgCl2, 0.5 GTP, and 2 ATP. The extracellular solution contained (in mM) 140 NaCl, 5.4 KCl, 2.0 CaCl2, 1.0 MgCl2, 10 HEPES (pH 7.4), and 10 glucose. Whole-cell patch-clamp recordings were performed at −60 mV with an Axoclamp 200B (Molecular Devices, Sunnyvale, CA, USA) or with HEKA EPC-10 (HEKA Elektronik GmbH, Reutlingen, Germany) amplifiers. […] Brief (3–5 s) pulses of agonist together with alkaloids were applied to cells. Stock solutions of the alkaloids were prepared in high purity distilled water. Aliquots of these stock solutions were diluted in reservoirs containing extracellular solution. […] The concentration–response curve parameters for the alkaloid inhibition (IC50, nH, and the maximal current inhibition) were obtained from the fitted curve of normalized concentration–response data points to the equation Iagonist = Imax (agonist)nH/((agonist)nH + (EC50)nH). The IC50 curves are best-fit mean ± SE from pooled data. […] The concentration of agonist corresponds to the sub-saturating agonist concentration used to obtain the IC50 for each alkaloid on a given GlyR subtype.

The target in a further data set is T2, chimeric α2α1 GlyR (Rattus norvegicus, UniProt P07727+P22771, A288G/A330S/F348L/L351F/V274I).
T2 construct: Relevance of the ECD for the subunit-specific actions of gelsemine on α1GlyRs; fusion partner: GlyR α1 transmembrane and C-terminal part (Glra1, printed Q546L7); expressed in transfected cells; host or cells: HEK293 (ATCC CRL-1573)
T2 sequence (P22771+P07727 with tags, fused parts or gaps P22771:V274I/P22771:A288G/P22771:A330S/P22771:F348L/P22771:L351F): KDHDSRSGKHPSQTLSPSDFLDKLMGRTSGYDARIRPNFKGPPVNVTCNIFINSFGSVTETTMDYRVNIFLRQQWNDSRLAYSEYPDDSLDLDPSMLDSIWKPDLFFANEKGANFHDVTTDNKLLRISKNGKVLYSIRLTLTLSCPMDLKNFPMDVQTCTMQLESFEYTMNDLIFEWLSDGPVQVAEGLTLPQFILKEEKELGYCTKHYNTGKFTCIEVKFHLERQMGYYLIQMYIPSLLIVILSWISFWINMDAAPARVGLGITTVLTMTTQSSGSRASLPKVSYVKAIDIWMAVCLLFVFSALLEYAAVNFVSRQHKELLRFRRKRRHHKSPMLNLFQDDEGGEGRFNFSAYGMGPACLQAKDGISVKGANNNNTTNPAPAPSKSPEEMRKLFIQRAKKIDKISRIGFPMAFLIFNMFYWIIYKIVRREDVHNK
In kind it is cell-based. The procedure: as §1, §2

For data set [1] the following is noted: cited from earlier work.
A further data set deals with T3, α3β GlyR (Rattus norvegicus, UniProt P20781+P24524).
T3 construct: The cells were transfected with plasmids encoding the following proteins; expressed in transfected cells; host or cells: HEK293 (ATCC CRL-1573)
T3 sequence (P24524 34-464): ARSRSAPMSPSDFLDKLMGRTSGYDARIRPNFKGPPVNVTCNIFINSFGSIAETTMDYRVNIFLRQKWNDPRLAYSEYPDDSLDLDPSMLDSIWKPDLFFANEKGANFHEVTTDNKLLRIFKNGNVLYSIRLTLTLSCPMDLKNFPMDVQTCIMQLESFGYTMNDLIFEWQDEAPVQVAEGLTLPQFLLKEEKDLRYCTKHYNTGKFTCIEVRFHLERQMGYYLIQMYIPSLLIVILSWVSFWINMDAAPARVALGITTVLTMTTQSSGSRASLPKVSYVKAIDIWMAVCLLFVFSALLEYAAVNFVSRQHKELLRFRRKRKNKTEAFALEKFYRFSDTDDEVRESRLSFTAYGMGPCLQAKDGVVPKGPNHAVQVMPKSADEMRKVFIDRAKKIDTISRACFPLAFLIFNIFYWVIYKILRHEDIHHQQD
T3 sequence (P20781 23-496): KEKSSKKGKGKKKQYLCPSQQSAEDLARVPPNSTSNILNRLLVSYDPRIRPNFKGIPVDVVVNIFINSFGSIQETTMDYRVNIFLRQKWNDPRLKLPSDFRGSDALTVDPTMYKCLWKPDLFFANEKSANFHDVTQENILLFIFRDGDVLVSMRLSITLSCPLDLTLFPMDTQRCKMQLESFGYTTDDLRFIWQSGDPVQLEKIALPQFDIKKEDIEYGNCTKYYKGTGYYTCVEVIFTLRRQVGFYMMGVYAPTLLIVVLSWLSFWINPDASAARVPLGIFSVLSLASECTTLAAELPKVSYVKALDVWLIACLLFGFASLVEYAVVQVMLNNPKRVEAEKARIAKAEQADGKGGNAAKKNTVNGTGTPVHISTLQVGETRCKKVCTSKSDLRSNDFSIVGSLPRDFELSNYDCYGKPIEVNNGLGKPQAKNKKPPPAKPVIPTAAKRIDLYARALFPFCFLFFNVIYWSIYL
Nature of the data set: cell-based. In kind it is cell-based. The procedure: as §1, §2

Consider `C=C[C@]12CN(C)[C@@H]3[C@H]4CO[C@H](C[C@H]41)[C@]1(C(=O)Nc4ccccc41)[C@@H]32` [gelsemine], for which the “effect on glycine-evoked currents (in words)” value at chimeric α1α2 GlyR (10 μM gelsemine, 35 μM glycine) is “potentiated”; on chimeric α2α1 GlyR (50 μM gelsemine, 65 μM glycine), “inhibitory effect”. The “residue in brain tissue after systemic application” value in data set [1] is “detectable in brain tissue after 3 days”.
In the case of `NCC(=O)O` [glycine, reference compound], the concentration for a half-maximal effect (EC50) at α3β GlyR (read-out: EC50 of agonist) was found to be 243 ± 13 µM; at chimeric α1α2 GlyR (read-out: EC50 of agonist), 55 ± 3 µM; at chimeric α2α1 GlyR (read-out: EC50 of agonist) it was 104 ± 9 µM.
As for `C=C[C@@]12CN(C)[C@H]3C[C@]14C(=Nc1ccccc14)[C@H]1C[C@@H]2[C@@H]3CO1` [koumine], at α3β GlyR, the IC50 is 20.2 ± 7.7 µM. In addition, the nH at α3β GlyR (Hill coefficient of inhibition curve) stood at 0.9 ± 0.3. Further, the Ki on α3β GlyR (calculated using the Cheng–Prussof equation) is 54.1 ± 20 µM. Besides, in data set [1], the “residue in brain tissue after systemic application” value is reported as “fully depleted after 1 day”.
